Test results from ChEMBL document CHEMBL5506073, “Discovery of Novel Ortho-Aminophenol Derivatives Targeting Lipid Peroxidation with Potent Antiferroptotic Activities” (J Med Chem, 2024).
One block for each compound: values may come before it. Activity calls are given as the source filed them. No cut-off for these calls is given here.

Assays:
[1] = test system: HT-1080; assay: Inhibition of RSL3-induced ferroptosis in human HT-1080 cells assessed as cell viability incubated for 24 hrs by CCK8 assay; type: functional, cell-based; conditions: for EC50: HT-1080, 24 h
[2] = test system: HT-1080; assay: Inhibition of RSL3-induced ferroptosis in human HT-1080 cells assessed as cell viability at 0.5 uM incubated for 24 hrs by CCK8 assay; type: functional, cell-based
[3] = Antioxidant activity assessed as DPPH radical scavenging activity at 10 uM incubated for 30 mins by absorbance based assay; type: functional
[4] = Antioxidant activity assessed as DPPH radical scavenging activity at 20 uM incubated for 30 mins by absorbance based assay; type: functional
[5] = test system: HT-1080; assay: Effect on glutathione metabolic pathway in human HT-1080 cells assessed as change in GPX4 mRNA level by qRT-PCR analysis; type: functional, cell-based
[6] = test system: Mus musculus; assay: Protection against kidney ischemia-reperfusion injury in C57BL/6 mouse model assessed as decrease in renal tubule dilation at 10 mg/kg, ip administered twice 1 hr prior to ischemia onset measured after 24 hrs post-ischemia by H and E staining based analysis; type: functional, organism-based; conditions: time 25.0 hrs
[7] = test system: KHOS/NP; assay: Inhibition of FIN56-induced ferroptosis in human KHOS/NP cells assessed as cell viability at 200 nM incubated for 24 hrs by CCK8 assay; type: functional, cell-based
[8] = test system: HT-1080; assay: Inhibition of RSL3-induced ferroptosis in human HT-1080 cells assessed as cell viability at 200 nM incubated for 24 hrs by CCK8 assay; type: functional, cell-based
[9] = test system: Mus musculus; assay: Protection against kidney ischemia-reperfusion injury in C57BL/6 mouse model assessed as decrease in BUN level at 10 mg/kg, ip administered twice 1 hr prior to ischemia onset measured after 24 hrs post-ischemia; type: functional, organism-based; conditions: time 25.0 hrs
[10] = test system: Mus musculus; assay: (§1) Protection against APAP-induced acute liver injury in overnight fasted C57BL/6 mouse model assessed as decrease in plasma ALT level at 10 mg/kg, ip administered 1 hr prior to APAP treatment measured after 12 hrs post-APAP treatment under continuous fasting condition; type: functional, organism-based; conditions: time 13.0 hrs
[11] = test system: Mus musculus; assay: Protection against kidney ischemia-reperfusion injury in C57BL/6 mouse model assessed as decrease in serum creatinine level at 10 mg/kg, ip administered twice 1 hr prior to ischemia onset measured after 24 hrs post-ischemia; type: functional, organism-based; conditions: time 25.0 hrs
[12] = test system: HT-1080; assay: Effect on glutathione metabolic pathway in human HT-1080 cells assessed as change in SLC7A11 mRNA level by qRT-PCR analysis; type: functional, cell-based
[13] = test system: SW480; assay: Inhibition of RSL3-induced ferroptosis in human SW480 cells assessed as cell viability at 200 nM incubated for 24 hrs by CCK8 assay; type: functional, cell-based
[14] = test system: SW480; assay: Inhibition of FIN56-induced ferroptosis in human SW480 cells assessed as cell viability at 200 nM incubated for 24 hrs by CCK8 assay; type: functional, cell-based
[15] = test system: HT-1080; assay: Inhibition of ferroptosis in human HT-1080 cells assessed as reversal of RSL3-induced normal morphological loss; type: functional, cell-based
[16] = test system: HT-1080; assay: Inhibition of ferroptosis in human HT-1080 cells assessed as reversal of RSL3-induced cell shrinkage; type: functional, cell-based
[17] = test system: HT-1080; assay: Inhibition of ferroptosis in human HT-1080 cells assessed as reversal of RSL3-induced swelling; type: functional, cell-based
[18] = test system: HTR-8/SVneo; assay: Inhibition of FIN56-induced ferroptosis in human HTR-8/SVneo cells assessed as cell viability at 200 nM incubated for 24 hrs by CCK8 assay; type: functional, cell-based
[19] = test system: HT-1080; assay: Inhibition of RSL3-induced lipid peroxidation in human HT-1080 cells assessed as reduction in MDA adduct accumulation by ELISA; type: functional, cell-based
[20] = test system: HKC; assay: Inhibition of FIN56-induced ferroptosis in human HKC cells assessed as cell viability at 200 nM incubated for 24 hrs by CCK8 assay; type: functional, cell-based
[21] = test system: Mus musculus; assay: Protection against kidney ischemia-reperfusion injury in C57BL/6 mouse model assessed as decrease in cytoplasmic vacuoles in kidney at 10 mg/kg, ip administered twice 1 hr prior to ischemia onset measured after 24 hrs post-ischemia by H and E staining based analysis; type: functional, organism-based; conditions: time 25.0 hrs
[22] = test system: Mus musculus; assay: Protection against APAP-induced acute liver injury in overnight fasted C57BL/6 mouse model assessed as decrease in plasma AST level at 10 mg/kg, ip administered 1 hr prior to APAP treatment measured after 12 hrs post-APAP treatment under continuous fasting condition; type: functional, organism-based; conditions: time 13.0 hrs
[23] = test system: Mus musculus; assay: as §1, with “reduction” for “decrease”, “necrotic areas of liver” for “plasma ALT level”, “condition by H and E staining based analysis” for “condition”; type: functional, organism-based; conditions: time 13.0 hrs
[24] = test system: Mus musculus; assay: Protection against kidney ischemia-reperfusion injury in C57BL/6 mouse model assessed as decrease in KIM-1 level in kidney at 10 mg/kg, ip administered twice 1 hr prior to ischemia onset measured after 24 hrs post-ischemia by IHC analysis; type: functional, organism-based; conditions: time 25.0 hrs
[25] = test system: Mus musculus; assay: Protection against APAP-induced acute liver injury in overnight fasted C57BL/6 mouse model assessed as normal pathology of liver at 10 mg/kg, ip administered 1 hr prior to APAP treatment measured after 12 hrs post-APAP treatment under continuous fasting condition by H and E staining based analysis; type: functional, organism-based; conditions: time 13.0 hrs
[26] = test system: HT-1080; assay: Inhibition of ferroptosis in human HT-1080 cells assessed as reversal of RSL3-induced membrane rupture; type: functional, cell-based
[27] = test system: HT-1080; assay: Inhibition of FIN56-induced ferroptosis in human HT-1080 cells assessed as cell viability at 200 nM incubated for 24 hrs by CCK8 assay; type: functional, cell-based
[28] = test system: KHOS/NP; assay: Inhibition of RSL3-induced ferroptosis in human KHOS/NP cells assessed as cell viability at 200 nM incubated for 24 hrs by CCK8 assay; type: functional, cell-based
[29] = test system: HT-1080; assay: Effect on iron metabolism in human HT-1080 cells assessed as change in FTH1 mRNA level by qRT-PCR analysis; type: functional, cell-based
[30] = test system: Mus musculus; assay: Protection against kidney ischemia-reperfusion injury in C57BL/6 mouse model assessed as decrease in brush edges loss in kidney at 10 mg/kg, ip administered twice 1 hr prior to ischemia onset measured after 24 hrs post-ischemia by H and E staining based analysis; type: functional, organism-based; conditions: time 25.0 hrs
[31] = test system: HT-1080; assay: Effect on lipid metabolism in human HT-1080 cells assessed as change in COX2 mRNA level by qRT-PCR analysis; type: functional, cell-based
[32] = test system: Mus musculus; assay: Protection against APAP-induced acute liver injury in overnight fasted C57BL/6 mouse model assessed as reduction in 4-HNE formation in liver at 10 mg/kg, ip administered 1 hr prior to APAP treatment measured after 12 hrs post-APAP treatment under continuous fasting condition by IHC analysis; type: functional, organism-based; conditions: time 13.0 hrs
[33] = test system: HK-2; assay: Inhibition of FIN56-induced ferroptosis in human HK-2 cells assessed as cell viability at 200 nM incubated for 24 hrs by CCK8 assay; type: functional, cell-based
[34] = test system: HT-1080; assay: Effect on iron metabolism in human HT-1080 cells assessed as change in TFRC mRNA level by qRT-PCR analysis; type: functional, cell-based
[35] = test system: HT-1080; assay: Effect on iron metabolism in human HT-1080 cells assessed as change in DMT1 mRNA level by qRT-PCR analysis; type: functional, cell-based
[36] = test system: Mus musculus; assay: Protection against APAP-induced acute liver injury in overnight fasted C57BL/6 mouse model assessed as reversal of native liver architecture at 10 mg/kg, ip administered 1 hr prior to APAP treatment measured after 12 hrs post-APAP treatment under continuous fasting condition by H and E staining based analysis; type: functional, organism-based; conditions: time 13.0 hrs
[37] = test system: HT-1080; assay: Inhibition of RSL3-induced lipid peroxidation in human HT-1080 cells assessed as reduction in green fluorescence by C11-BODIPY581/591 probe based analysis; type: functional, cell-based
[38] = test system: HT-1080; assay: Effect on lipid metabolism in human HT-1080 cells assessed as change in ACSL4 mRNA level by qRT-PCR analysis; type: functional, cell-based
[39] = test system: HT-1080; assay: Effect on lipid metabolism in human HT-1080 cells assessed as change in ALOX15 mRNA level by qRT-PCR analysis; type: functional, cell-based
[40] = test system: HTR-8/SVneo; assay: Inhibition of RSL3-induced ferroptosis in human HTR-8/SVneo cells assessed as cell viability at 200 nM incubated for 24 hrs by CCK8 assay; type: functional, cell-based
[41] = test system: HKC; assay: Inhibition of RSL3-induced ferroptosis in human HKC cells assessed as cell viability at 200 nM incubated for 24 hrs by CCK8 assay; type: functional, cell-based
[42] = test system: HK-2; assay: Inhibition of RSL3-induced ferroptosis in human HK-2 cells assessed as cell viability at 200 nM incubated for 24 hrs by CCK8 assay; type: functional, cell-based

Structure (SMILES): CSc1nnc(-c2cccc(O)c2N)o1
EC50 [1]: 99.2 nM

Structure (SMILES): CCCCOC(=O)c1cccc(O)c1N
inhibition [2]: Active | Activity [3]: Active | EC50 [1]: 385 nM

Structure (SMILES): Nc1c(O)cccc1-c1nnc(SCc2ccccc2)o1
EC50 [1]: 238 nM

Structure (SMILES): Cn1c(-c2cccc(O)c2N)nc2ccccc21
EC50 [1]: 237 nM

Structure (SMILES): Nc1c(O)cccc1-c1nnc(S)o1
EC50 [1]: 366 nM

Structure (SMILES): Nc1c(O)cccc1-c1nnc(SCC(=O)O)o1
EC50 [1]: > 1000 nM

Structure (SMILES): CC(C)OC(=O)c1cccc(O)c1N
inhibition [2]: Active | Activity [3]: Active | EC50 [1]: 388 nM

Structure (SMILES): COc1ccc(CSc2nnc(-c3cccc(O)c3N)o2)cc1
EC50 [1]: 177 nM

Further lines, with some results ahead:

EC50 [1]: 2620 nM
Structure (SMILES): Cc1ccc(/C=N/NC(=O)c2cccc(O)c2N)cc1

EC50 [1]: > 1000 nM
Structure (SMILES): NNC(=O)c1cccc(O)c1N

EC50 [1]: 274 nM
Structure (SMILES): Nc1c(O)cccc1C(=O)N/N=C/c1ccccc1

EC50 [1]: 526 nM
Structure (SMILES): COC(=O)c1cccc(O)c1N
inhibition [1]: Dose-Dependent Effect

EC50 [1]: 40.5 nM
Structure (SMILES): COc1ccc(/C=N/NC(=O)c2cccc(O)c2N)cc1
Activity [4]: Active | Activity [5]: inactive | Activity [6]: Active | inhibition [7]: Active | inhibition [8]: Active | Activity [9]: Active | Activity [10]: Active | Activity [11]: Active | Activity [12]: inactive | inhibition [13]: Active | inhibition [14]: Active | inhibition [15]: Active | inhibition [16]: Active | inhibition [17]: Active | inhibition [18]: Active | inhibition [19]: Active | inhibition [20]: Active | Activity [21]: Active | Activity [22]: Active | Activity [23]: Active | Activity [24]: Active | Activity [25]: Active | inhibition [26]: Active | inhibition [27]: Active | inhibition [28]: Active | Activity [29]: inactive | Activity [30]: Active | Activity [31]: inactive | Activity [32]: Active | inhibition [33]: Active | Activity [34]: inactive | Activity [35]: inactive | Activity [36]: Active | inhibition [37]: Active | Activity [38]: inactive | Activity [39]: inactive | inhibition [40]: Active | inhibition [41]: Active | inhibition [42]: Active

EC50 [1]: 191 nM
Structure (SMILES): Nc1c(O)cccc1C(=O)N/N=C/c1ccccn1
